Measurements taken from patent EP4467141A1, “PYRAZOLO-QUINOLINES AS SELECTIVE INHIBITORS OF GENOTOXIC STRESS-INDUCED IKK/NF- KB PATHWAYS FOR CANCER THERAPY” (Max-Delbrück-Centrum für Molekulare Medizin in der …, priority 2023, dated 2024).

Key:
Assay in all cases: Kinase panel study
Format in all cases: biochemical
Conditions in all cases: read-out: Percentage of inhibition; for inhibition at 1 µM: 1000nM; for inhibition at 10 µM: 10000nM
KIT T670I = molecular target: T1, KIT T670I (Homo sapiens, UniProt P10721, T670I)
T1 construct: purchased Thermo Fisher Scientific
How it was run: (§1)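 In vitro, kinase panel; ZLyte or Adapta SOP; single-concentration testing (1 or 10 µM); output = % inhibition, plus IC50 in panel.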

ABL1 Y253F = molecular target: T2, ABL1 Y253F (Homo sapiens, UniProt P00519, Y253F)
T2 construct: purchased Thermo Fisher Scientific
How it was run: as §1

MAP3K19 (YSK4) = molecular target: T3, MAP3K19 (YSK4) (Homo sapiens, UniProt Q56UN5)
T3 construct: purchased Thermo Fisher Scientific
T3 sequence (Q56UN5 1-1328): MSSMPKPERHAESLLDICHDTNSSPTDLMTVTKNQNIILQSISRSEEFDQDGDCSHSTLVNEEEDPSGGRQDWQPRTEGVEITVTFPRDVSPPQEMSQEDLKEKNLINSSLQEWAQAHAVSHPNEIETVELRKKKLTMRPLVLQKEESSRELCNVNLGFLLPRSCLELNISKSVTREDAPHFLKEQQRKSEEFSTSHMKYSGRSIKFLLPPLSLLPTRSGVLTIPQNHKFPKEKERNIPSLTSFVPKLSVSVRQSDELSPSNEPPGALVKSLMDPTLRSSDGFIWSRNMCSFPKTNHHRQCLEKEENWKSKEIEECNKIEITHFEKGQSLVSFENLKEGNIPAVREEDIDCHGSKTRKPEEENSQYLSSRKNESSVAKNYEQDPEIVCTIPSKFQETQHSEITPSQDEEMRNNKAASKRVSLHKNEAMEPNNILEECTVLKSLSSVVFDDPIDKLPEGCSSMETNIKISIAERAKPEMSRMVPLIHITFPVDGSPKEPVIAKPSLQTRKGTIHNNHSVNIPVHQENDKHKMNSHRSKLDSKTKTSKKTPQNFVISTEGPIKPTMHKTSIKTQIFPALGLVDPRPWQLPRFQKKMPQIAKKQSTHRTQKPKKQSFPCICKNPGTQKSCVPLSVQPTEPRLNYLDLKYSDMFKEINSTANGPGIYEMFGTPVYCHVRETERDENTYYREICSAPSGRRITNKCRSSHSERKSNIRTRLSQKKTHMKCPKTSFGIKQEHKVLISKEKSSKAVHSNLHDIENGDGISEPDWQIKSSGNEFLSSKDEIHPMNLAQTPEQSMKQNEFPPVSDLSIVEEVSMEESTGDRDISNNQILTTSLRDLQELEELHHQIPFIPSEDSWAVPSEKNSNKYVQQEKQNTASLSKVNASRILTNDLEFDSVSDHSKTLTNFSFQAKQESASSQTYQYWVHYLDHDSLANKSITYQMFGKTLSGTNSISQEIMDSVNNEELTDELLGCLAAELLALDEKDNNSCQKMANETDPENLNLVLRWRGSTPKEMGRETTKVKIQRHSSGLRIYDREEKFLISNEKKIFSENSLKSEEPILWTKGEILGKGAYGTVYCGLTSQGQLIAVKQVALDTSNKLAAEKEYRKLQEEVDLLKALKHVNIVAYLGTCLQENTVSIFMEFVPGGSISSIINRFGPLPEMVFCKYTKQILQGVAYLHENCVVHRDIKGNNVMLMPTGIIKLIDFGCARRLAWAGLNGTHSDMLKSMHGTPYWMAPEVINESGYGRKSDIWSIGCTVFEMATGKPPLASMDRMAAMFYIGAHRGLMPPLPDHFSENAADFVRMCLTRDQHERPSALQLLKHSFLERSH
How it was run: as §1

AURKC (Aurora C) = molecular target: T4, AURKC (Aurora C) (Homo sapiens, UniProt Q9UQB9)
T4 construct: purchased Thermo Fisher Scientific
T4 sequence (Q9UQB9 1-309): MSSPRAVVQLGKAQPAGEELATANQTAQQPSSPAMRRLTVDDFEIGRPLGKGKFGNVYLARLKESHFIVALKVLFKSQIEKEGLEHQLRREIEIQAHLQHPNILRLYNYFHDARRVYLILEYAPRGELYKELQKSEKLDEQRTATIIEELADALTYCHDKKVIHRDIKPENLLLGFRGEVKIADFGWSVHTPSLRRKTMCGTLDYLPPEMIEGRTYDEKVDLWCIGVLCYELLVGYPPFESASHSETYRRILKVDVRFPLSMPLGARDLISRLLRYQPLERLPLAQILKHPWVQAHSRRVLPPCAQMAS
How it was run: as §1

KDR (VEGFR2) = molecular target: T5, KDR (VEGFR2) (Homo sapiens, UniProt P35968)
T5 construct: purchased Thermo Fisher Scientific
How it was run: as §1

T1 sequence (P10721 26-976 T670I): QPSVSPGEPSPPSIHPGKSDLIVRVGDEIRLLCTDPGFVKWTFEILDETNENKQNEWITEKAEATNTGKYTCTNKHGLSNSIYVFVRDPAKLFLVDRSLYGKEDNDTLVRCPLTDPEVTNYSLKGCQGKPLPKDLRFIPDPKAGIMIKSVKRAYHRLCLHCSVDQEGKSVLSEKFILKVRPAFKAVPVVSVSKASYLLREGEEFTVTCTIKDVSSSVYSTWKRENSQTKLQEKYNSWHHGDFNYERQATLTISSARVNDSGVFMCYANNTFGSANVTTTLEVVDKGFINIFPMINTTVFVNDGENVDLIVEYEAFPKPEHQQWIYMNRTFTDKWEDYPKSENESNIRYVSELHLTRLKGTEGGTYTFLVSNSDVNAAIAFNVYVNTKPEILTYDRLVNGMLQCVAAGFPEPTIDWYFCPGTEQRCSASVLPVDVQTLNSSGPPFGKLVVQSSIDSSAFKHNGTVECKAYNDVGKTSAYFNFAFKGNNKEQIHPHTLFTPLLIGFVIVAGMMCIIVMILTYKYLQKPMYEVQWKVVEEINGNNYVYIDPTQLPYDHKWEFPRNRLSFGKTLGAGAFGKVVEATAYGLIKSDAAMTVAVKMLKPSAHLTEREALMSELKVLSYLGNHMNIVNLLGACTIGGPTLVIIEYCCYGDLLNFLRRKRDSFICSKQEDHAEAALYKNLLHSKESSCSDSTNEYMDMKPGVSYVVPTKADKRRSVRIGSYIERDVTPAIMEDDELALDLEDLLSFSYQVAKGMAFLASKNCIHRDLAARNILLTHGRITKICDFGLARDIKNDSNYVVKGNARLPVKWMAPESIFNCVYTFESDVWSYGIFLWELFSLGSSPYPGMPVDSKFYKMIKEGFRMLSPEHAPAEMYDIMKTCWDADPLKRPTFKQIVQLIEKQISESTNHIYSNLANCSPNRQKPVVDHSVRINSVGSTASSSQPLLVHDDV
T5 sequence (P35968 20-1356): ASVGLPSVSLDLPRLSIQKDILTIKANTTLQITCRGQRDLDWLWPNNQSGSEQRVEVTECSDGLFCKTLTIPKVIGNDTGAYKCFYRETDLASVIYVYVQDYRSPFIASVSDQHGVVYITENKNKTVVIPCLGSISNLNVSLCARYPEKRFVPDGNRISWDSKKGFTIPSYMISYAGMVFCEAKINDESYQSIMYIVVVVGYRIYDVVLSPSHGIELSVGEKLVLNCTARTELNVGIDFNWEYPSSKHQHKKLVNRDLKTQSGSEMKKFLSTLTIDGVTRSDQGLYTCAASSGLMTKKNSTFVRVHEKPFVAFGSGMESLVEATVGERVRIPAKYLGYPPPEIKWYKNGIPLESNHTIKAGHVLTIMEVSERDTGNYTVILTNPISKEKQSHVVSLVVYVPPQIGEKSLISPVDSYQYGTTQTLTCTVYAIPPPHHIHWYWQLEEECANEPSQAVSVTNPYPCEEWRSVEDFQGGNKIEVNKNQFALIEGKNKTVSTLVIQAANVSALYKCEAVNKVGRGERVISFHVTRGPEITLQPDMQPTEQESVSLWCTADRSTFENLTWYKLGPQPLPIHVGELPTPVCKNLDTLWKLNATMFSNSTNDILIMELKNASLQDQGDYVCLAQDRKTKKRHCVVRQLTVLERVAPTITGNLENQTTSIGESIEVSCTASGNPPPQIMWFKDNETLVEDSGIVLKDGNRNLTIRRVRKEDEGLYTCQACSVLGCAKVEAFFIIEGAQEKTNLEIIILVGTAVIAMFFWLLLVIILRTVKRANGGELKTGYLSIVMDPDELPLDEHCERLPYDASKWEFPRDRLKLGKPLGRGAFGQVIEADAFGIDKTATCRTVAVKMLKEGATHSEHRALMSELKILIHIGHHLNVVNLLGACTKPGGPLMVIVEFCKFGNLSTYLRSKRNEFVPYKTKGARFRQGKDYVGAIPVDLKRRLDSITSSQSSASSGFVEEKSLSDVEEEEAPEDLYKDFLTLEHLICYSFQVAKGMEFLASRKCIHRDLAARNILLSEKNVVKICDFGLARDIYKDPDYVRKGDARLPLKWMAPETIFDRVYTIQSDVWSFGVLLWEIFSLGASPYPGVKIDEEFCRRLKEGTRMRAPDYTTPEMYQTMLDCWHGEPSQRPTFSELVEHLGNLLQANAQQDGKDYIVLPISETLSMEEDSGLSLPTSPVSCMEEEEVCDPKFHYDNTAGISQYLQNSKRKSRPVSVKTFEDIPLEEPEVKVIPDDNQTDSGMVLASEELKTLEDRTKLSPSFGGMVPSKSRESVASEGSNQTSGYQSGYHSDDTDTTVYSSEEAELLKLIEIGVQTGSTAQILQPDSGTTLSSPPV

Row | SMILES | inhibition at 1 µM (KIT T670I) | inhibition at 10 µM (KIT T670I) | inhibition at 1 µM (ABL1 Y253F) | inhibition at 10 µM (ABL1 Y253F) | inhibition at 1 µM (MAP3K19 (YSK4)) | inhibition at 10 µM (MAP3K19 (YSK4)) | inhibition at 1 µM (AURKC (Aurora C)) | inhibition at 10 µM (AURKC (Aurora C)) | inhibition at 1 µM (KDR (VEGFR2)) | inhibition at 10 µM (KDR (VEGFR2))
1 | COc1ccc2cc3c(N)nn(C(=O)c4cccc(N(C)C)c4)c3nc2c1 [MW05, (3-Amino-7-methoxypyrazolo[3,4-b]quinolin-1-yl)-[3-(dimethylamino)phenyl]methanone] | -1% | -13% | -2% | 7% | -3% | -5% | 9% | 9% | 7% | -15%
2 | COc1ccc2c(c1OC)c(=O)n1c3ccc(O)cc3c3ccnc2c31 [MW01, 5-Hydroxy-10,11-dimethoxy-9H-benzo[c]indolo[3,2,1-ij][1,5]naphthyridin-9-one] | 1% | 13% | 9% | 30% | 4% | 17% | 8% | 10% | 24% | 54%
